Laboratory results published in patent EP1709964A2, “A method of cosmetic depigmentation care by applying at least one aurone” (ENGELHARD LYON, priority 2005, dated 2006).
Like-named read-outs stand apart in the source and are kept apart here.

Tests used:
Human tyrosinase [1] = biological target: T1, Human tyrosinase (Homo sapiens, UniProt P14679); test: Inhibition of human tyrosinase in a monolayer after 24 h application of the actives on normal human melanocytes (MBTH/L-Dopa, OD 490 nm/protein); format: cell-based; details: for inhibition at 1000 µM: 10^-3 M; for Inhibition (%): model of Example 15
T1 construct: Normal human melanocytes (originating from abdominal plasty) are sown in a 24-well plate; endogenous in cells; host or cells: normal human melanocytes from abdominal plasty; donors of light, brown and black phototype
T1 sequence (P14679 19-529): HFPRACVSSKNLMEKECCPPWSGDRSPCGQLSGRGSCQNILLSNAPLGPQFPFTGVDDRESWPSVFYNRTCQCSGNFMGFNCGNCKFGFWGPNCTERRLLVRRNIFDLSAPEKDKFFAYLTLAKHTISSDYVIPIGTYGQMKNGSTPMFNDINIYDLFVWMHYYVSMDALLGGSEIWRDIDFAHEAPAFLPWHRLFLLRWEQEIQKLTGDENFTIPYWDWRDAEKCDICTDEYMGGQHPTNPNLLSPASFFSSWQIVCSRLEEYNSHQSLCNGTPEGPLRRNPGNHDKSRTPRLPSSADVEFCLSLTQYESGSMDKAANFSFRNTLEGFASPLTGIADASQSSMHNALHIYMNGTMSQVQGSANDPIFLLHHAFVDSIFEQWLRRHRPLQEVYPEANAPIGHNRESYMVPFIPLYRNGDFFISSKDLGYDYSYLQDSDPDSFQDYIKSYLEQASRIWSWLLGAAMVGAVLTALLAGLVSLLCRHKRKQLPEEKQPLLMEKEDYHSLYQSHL
Method: Normal human melanocytes (originating from abdominal plasty) are sown in a 24-well plate at the rate of 80,000 cells per well. They are cultivated up to confluence and the actives are applied for 24 hours in the culture media. After 24 hours, the media are removed and the melanocytes are picked up by mechanical action. An extraction is made by heat shock and the supernatants are then recovered and then incubated with MBTH (Sigma) and L-Dopa (Sigma).
The compound obtained in Example 9b was tested on melanocytes originating from various donors but of light phototypes according to the method described in Example 15. […] Table 6 : Inhibition of tyrosinase by compound 9b on 4 different donors.
The compound obtained in Example 9b is tested on cultures of melanocytes originating from 2 donors of brown phototypes and from one donor of negroid phototype. The method applied is that described in Example 15.
(§1) A study is made with molecules known in the literature for their depigmenting activity. These molecules are applied to the model described in Example 15 so as to compare their efficiency with respect to the aurones described above.

normal human melanocytes = test: Cytotoxicity by PNPP determination (percentage viability); format: cell-based; details: 24 hours at 37°C, with respect to non-treated wells
Method: The cytotoxicity of the actives is studied on normal human melanocytes in a 24-well plate by a determination with PNPP (P-nitrophenyl phosphate), a substance which is converted into p-nitrophenol by the intracellular acid phosphatases of viable cells.
The absorbance of p-nitrophenol at 405 nm is directly proportional to the number of viable cells.
The actives are tested at 2 different concentrations (10^-4 M and 10^-5 M) and are added to the culture medium and are incubated at 37°C for 24 hours. The determination with PNPP is carried out on a cell mat and the results are expressed as a percentage viability with respect to the negative control (non-treated wells). The results obtained are summarized in Table 9 below : Tableau 9 : Percentages viability obtained for the various aurone derivatives on normal human melanocytes (the molecules were tested at 2 concentrations 10^-4 and 10^-5 M.

tyrosinase from mushroom = test: In vitro test of the inhibition of isolated tyrosinase (L-DOPA to dopachrome, OD 490 nm); format: biochemical; details: 490 nm
Source text: Tyrosinase catalyses the formation of L-dopaquinone, and then dopachrome, from L-Dopa. Dopachrome is a colored compound which is quantifiable by visible spectrophotometry at 490 nm. The use of an active which is capable of modifying the enzymatic activity manifests itself by a variation in the optical density at 490nm.
The ratio of the rates of formation of the dopachrome enables the activations or the inhibitions obtained with the various molecules tested to de determined precisely.
The sample to be tested is incubated in the presence of tyrosinase from mushroom (Sigma) for 5 minutes under agitation. L-DOPA (Sigma), substrate of the tyrosinase, is incubated for 10 minutes in the dark in the presence or the absence of the molecules to be tested. The calculation of the percentage inhibition is made by comparing the OD of the test to the OD of the negative control without molecule.
Within the context of this in vitro test, the aurone derivatives were tested at final concentrations of 10^-4M and 10^-5M.

Human tyrosinase [2] = biological target: T1, Human tyrosinase; test: In vitro test of the inhibition of human tyrosinase from melanocyte extract (L-Dopa/MBTH, OD 490 nm); format: biochemical; details: isolated human tyrosinase, read-out: Inhibition of human tyrosinase, percentage inhibition
Method: Human tyrosinase obtained from melanocyte extracts originating from healthy donors catalyses the formation of L-Dopaquinone from L-Dopa. L-dopaquinone can be quantified by visible spectrophotometry at 490 nm by virtue of a chromogen : 3-methyl-2-benzothiazolinone hydrazone (MBTH).
The melanocyte extract is obtained after lysis of the cell membranes of the normal human melanocytes which lysis is carried out by a heat shock. The supernatant is recovered and then incubated with MBTH (Sigma) and L-Dopa (Sigma).

melanocytes = system: melanocytes
Source text: as §1

[3] = 10^-4M, 24 hours, read-out: Inhibition of human tyrosinase after application on normal human melanocytes, percentage inhibition
[4] = 10^-5M, 24 hours, read-out: Inhibition of human tyrosinase after application on normal human melanocytes, percentage inhibition

inhibition at 100 µM (Human tyrosinase [1]; [3]) [%] | inhibition at 10 µM (Human tyrosinase [1]; [4]) [%] | Inhibition of tyrosinase from mushroom, percentage inhibition (tyrosinase from mushroom; 10^-4M) [%] | Inhibition of tyrosinase from mushroom, percentage inhibition (tyrosinase from mushroom; 10^-5M) [%] | Compound | Percentages viability (normal human melanocytes; 10^-4 M) [%] | Percentages viability (normal human melanocytes; 10^-5 M) [%] | further results
 |  |  |  | 4,6-Dihydroxybenzofuran-3(2H)-one (R1 = OH) and 6-Hydroxybenzofuran-3(2H)-one (R1 = H) [Example 2] | 103.84 | 126.09 | Inhibition of human tyrosinase after application on normal human melanocytes, percentage inhibition (Human tyrosinase [1]; 10^-5M, 24 hours): 9.69%
0 | 0 |  |  | COc1cc(OC)c2c(c1)OCC2=O [Example 4, 4,6-Dimethoxybenzofuran-3(2H)-one] | 106.77 | 85.33 | 
0 | 0 | 0 ± 1.58 | 0 ± 0.28 | COc1cc(OC)c2c(c1)O/C(=C\c1ccccc1)C2=O [Example 5, (Z)-2-Benzylidene-4,6-dimethoxybenzofuran-3(2H)-one] | 83.1 | 98.55 | 
14.4 | 27.4 | 0 ± 1.33 | 0 ± 3.90 | COc1cc(OC)c2c(c1)O/C(=C\c1ccc(O)cc1)C2=O [Example 5a, (Z)-4,6-dimethoxy-2-(4'-hydroxybenzylidene)benzofuran-3(2H)-one] | 104.53 | 90.87 | 
 | 19.4 | 0 ± 4.21 | 0 ± 2.5 | CCc1ccc(/C=C2\Oc3cc(OC)cc(OC)c3C2=O)cc1 [Example 5b, (Z)-4,6-dimethoxy-2-(4'-ethylbenzylidene)benzofuran-3(2H)-one] |  | 99.62 | 
0 | 4.27 | 0 ± 1.64 | 1.07 ± 4.37 | COc1cc(OC)c2c(c1)O/C(=C\c1ccc(SC)cc1)C2=O [Example 5c, (Z)-4,6-dimethoxy-2-(4'-methylthiobenzylidene)benzofuran-3(2H)-one] | 80.08 | 136.13 | 
0 | 0 | 0 ± 2.42 | 0 ± 5.47 | COc1cc(OC)c2c(c1)O/C(=C\c1ccc(C#N)cc1)C2=O [Example 5d, (Z)-2-(4-cyanobenzylidene)-4,6-dimethoxybenzofuran-3(2H)-one] | 98.93 | 96.51 | 
 | 0 | 31.22 ± 3.94 | 0 ± 2.27 | COc1cc(O)c2c(c1)O/C(=C\c1ccccc1)C2=O [Example 6, (Z)-2-Benzylidene-4-hydroxy-6-methoxybenzofuran-3(2H)-one] |  | 121.56 | 
 | 14.2 | 23.65 ± 9.36 | 0 ± 5.84 | COc1cc(O)c2c(c1)O/C(=C\c1ccc(SC)cc1)C2=O [Example 6c] |  | 116.24 | 
2.31 | 0 | 0 ± 3.51 | 0 ± 3.94 | COc1cc(O)c2c(c1)O/C(=C\c1ccc(C#N)cc1)C2=O [Example 6d] | 85.65 | 119.36 | 
 | 4.52 | 54.57 ± 3.01 | 14.63 ±6.73 | CCc1ccc(/C=C2\Oc3cc(O)cc(O)c3C2=O)cc1 [Example 7b] | 63.52 | 143.15 | 
75.3 | 35.2 | 23.85 ± 2.42 | 0 ± 1.73 | O=C1/C(=C/c2ccc(O)cc2)Oc2cc(O)cc(O)c21 [Example 9b, (Z)-4,6-Dihydroxy-2-(4'-hydroxybenzylidene)benzofuran-3(2H)-one] | 90.31 | 128.39 | Inhibition of human tyrosinase after application on normal human melanocytes, percentage inhibition (Human tyrosinase [1]; 10^-4M, 24 hours): 75.31 ± 8.51%; Inhibition of human tyrosinase after application on normal human melanocytes, percentage inhibition (Human tyrosinase [1]; 10^-5M, 24 hours): 35.23 ± 2.34%; inhibition at 100 µM (Human tyrosinase [1]; Donor 1 (light phototype), 10^-4 M, read-out: Inhibition of tyrosinase): 37.8%; inhibition at 10 µM (Human tyrosinase [1]; Donor 1 (light phototype), 10^-5 M, read-out: Inhibition of tyrosinase): -9.77%; inhibition at 100 µM (Human tyrosinase [1]; Donor 2 (light phototype), 10^-4 M, read-out: Inhibition of tyrosinase): 43%; inhibition at 10 µM (Human tyrosinase [1]; Donor 2 (light phototype), 10^-5 M, read-out: Inhibition of tyrosinase): -7.56%; inhibition at 100 µM (Human tyrosinase [1]; Donor 3 (light phototype), 10^-4 M, read-out: Inhibition of tyrosinase): 63.4%; inhibition at 10 µM (Human tyrosinase [1]; Donor 3 (light phototype), 10^-5 M, read-out: Inhibition of tyrosinase): 24.7%; inhibition at 1000 µM (Human tyrosinase [1]; Donor A, brown phototype, read-out: Inhibitions of tyrosinase): 97.5%; inhibition at 100 µM (Human tyrosinase [1]; Donor A, brown phototype, 10^-4 M, read-out: Inhibitions of tyrosinase): 45%; inhibition at 10 µM (Human tyrosinase [1]; Donor A, brown phototype, 10^-5 M, read-out: Inhibitions of tyrosinase): 25.4%; inhibition at 1000 µM (Human tyrosinase [1]; Donor B, brown phototype, read-out: Inhibitions of tyrosinase): 91.8%; inhibition at 100 µM (Human tyrosinase [1]; Donor B, brown phototype, 10^-4 M, read-out: Inhibitions of tyrosinase): 67%; inhibition at 10 µM (Human tyrosinase [1]; Donor B, brown phototype, 10^-5 M, read-out: Inhibitions of tyrosinase): 31.8%; inhibition at 100 µM (Human tyrosinase [1]; Donor S (light phototype), 10^-4 M, read-out: Inhibition of tyrosinase): 75.3%; inhibition at 10 µM (Human tyrosinase [1]; Donor S (light phototype), 10^-5 M, read-out: Inhibition of tyrosinase): 35.2%; inhibition at 100 µM (Human tyrosinase [1]; Donor, 10^-4 M, read-out: Inhibition): 65.8%; inhibition at 10 µM (Human tyrosinase [1]; Donor, 10^-5 M, read-out: Inhibition): 39.5%; inhibition at 100 µM (Human tyrosinase [2]; 10^-4M): 18 ± 1.6%; inhibition at 10 µM (Human tyrosinase [2]; 10^-5M): 5.62 ± 2.73%
 |  |  |  | O=C1O[C@H]([C@@H](O)CO)C(O)=C1OP(=O)(O)O [VitC PMG, reference compound] |  |  | Inhibition (%) (Human tyrosinase [1]; 0.03%): 2.93%; Inhibition (%) (Human tyrosinase [1]; 0.3%): 1.55%; Inhibition (%) (Human tyrosinase [1]; 3%): -3.49%; cytotoxicity (melanocytes): no
